From US9388250B2, “Method to treat psoriasis and other hyperproliferative skin disorders” (CORNELL UNIVERSITY, priority 2009, dated 2016) come the findings set out here.

Test [1] concerns C57B1/6 mouse ears. Briefly: IL-22-induced acanthosis in mouse ears, subcutaneous co-injection of IL-22+KH7. Type of test: in vivo. The method, then: FIG. 1 Tissue sections stained with H/E of C57B1/6 mouse ears following injection with saline, IL-22 and IL-22+KH7 (a sAc inhibitor). Slides were visualized on a standard pathology microscope. Bar graph in lower right corner represents the average±SEM thickness of epidermis in each of three conditions listed in the previous sentence. a student t test was performed with p value listed.
IL-22 protein was purchased from Preprotech and reconstituted in sterile water as per the manufacturer's instructions. Concentrated IL-22 was diluted to a working concentration of 500 ng/20 μL in sterile saline alone, or with KH7 at 100 μM. These solutions were prepared fresh each day they were used. C57B1/6 mice greater than 2 months in age, kept under a normal light/dark cycle, and fed normal chow were injected subcutaneously in their left ear with 20 μL of IL-22 alone and in their right ear with 20 μL of IL-22+KH7 every other day for two weeks, or were injected subcutaneously in their left and right ear with 20 μL of IL-22 and then treated topically (54) following each injection with vehicle on the left ear and KH7 on the right ear every other day for two weeks. As a control C57B1/6 mice were injected with 20 μL of IL-22 in their left ear and 20 μL of sterile saline alone in their right ear every other day for two weeks. After two weeks the ears were removed, formalin fixed, paraffin embedded, sectioned, and stained with simple hematoxylin and eosin. Epidermal height was measured from the bottom of the basal cell layer to the top of the granular cell layer using a microscope and a micrometer. Three to four measurements were taken along the ear and multiple sections were measured for each condition. In addition, the total number of acanthotic ear sections were recorded as an indication of the distribution of acanthosis.

The subject of test [2] is C57B1/6 mouse ears. Nature of the test: IL-22-induced acanthosis in mouse ears, topical application of KH7. Type of test: in vivo. Conditions: ear painted with 100 micromolar KH7 in DMSO one hour after IL-22 injection, every other day for two weeks, three mice, ANOVA P<0.05 IL-22 vs IL-22+KH7, not different from control. As for the experimental part: FIG. 11. Topical application of KH7 inhibits IL-22-induced acanthosis As before C57B1/6 mouse ears were injected with normal saline (control) or 500 ng of IL-22 in 20 microliters of normal saline (IL-22). After incubation for one hour the left ear was painted with 5 microliters of DMSO and the right ear was painted with 100 micromolar KH7 in DMSO (IL-22+KH7). This was repeated every other day for two weeks. The ears were then removed and the total area of acanthosis of each ear was calculated and represented as a % of acanthosis relative to control ears. […]
IL-22 protein was purchased from Preprotech and reconstituted in sterile water as per the manufacturer's instructions. […] Epidermal height was measured from the bottom of the basal cell layer to the top of the granular cell layer using a microscope and a micrometer. Three to four measurements were taken along the ear and multiple sections were measured for each condition. In addition, the total number of acanthotic ear sections were recorded as an indication of the distribution of acanthosis.
Topical application of KH7 inhibits IL-22-induced acanthosis. […] The ears were then removed and the total area of acanthosis of each ear was calculated and represented as a % of acanthosis relative to control ears. […]

A further test concerns keratinocytes in culture. Nature of the test: IL-22-induced rise in cAMP within keratinocytes in culture. Type of test: cell-based. Conditions: IL-22 stimulated. The source says: To address the role of sAC in keratinocyte proliferation we studied IL-22-induced psoriasis pathogenesis as a model system. IL-22 induced a rise in cAMP within keratinocytes in culture. This cAMP rise was inhibited by KH7 (a specific inhibitor of sAC).

As for `CC(Sc1nc2ccccc2[nH]1)C(=O)N/N=C/c1cc(Br)ccc1O` (centres unmarked) [KH7], the “IL-22-induced acanthosis (thickness of epidermis)” value in the test with C57B1/6 mouse ears [1] (IL-22 500 ng/20 μL with KH7 at 100 μM, every other day for two weeks) was “completely blocked”. Further, in the test on C57B1/6 mouse ears [1] (IL-22 with KH7, every other day for two weeks), the IL-22-induced parakeratosis result was “completely blocked”. Also, the “IL-22-induced recruitment of immunocytes (ie T cells)” value with C57B1/6 mouse ears [1] (injection of IL-22+KH7, H/E sections) is given as “completely blocked”. In the test with C57B1/6 mouse ears [2], the “IL-22-induced acanthosis (total area of acanthosis, % relative to control ears)” value is “inhibits”. Besides, the “IL-22-induced cAMP rise within keratinocytes” value with keratinocytes in culture is on record as “inhibited”.
